From ChEMBL document CHEMBL2074007, “Characterization of the transport of nucleoside analog drugs by the human multidrug resistance proteins MRP4 and MRP5” (Mol Pharmacol, 2003)

What was measured:
MRP5 (ABCC5) = MRP5 (ABCC5) (Homo sapiens, UniProt O15440); assay: TP_TRANSPORTER: inhibition of alaninyl-d4TMP uptake (alaninyl-d4TMP: 1 uM, Zaprinast: 100uM) in MRP5-expressing HEK293 cells; type: functional, cell-based; set-up: scale not given: the % may be the effect or the level left; settings: probe alaninyl-d4TMP (1 uM), read-out: Activity
Sequence of MRP5 (ABCC5) (O15440 whole entry): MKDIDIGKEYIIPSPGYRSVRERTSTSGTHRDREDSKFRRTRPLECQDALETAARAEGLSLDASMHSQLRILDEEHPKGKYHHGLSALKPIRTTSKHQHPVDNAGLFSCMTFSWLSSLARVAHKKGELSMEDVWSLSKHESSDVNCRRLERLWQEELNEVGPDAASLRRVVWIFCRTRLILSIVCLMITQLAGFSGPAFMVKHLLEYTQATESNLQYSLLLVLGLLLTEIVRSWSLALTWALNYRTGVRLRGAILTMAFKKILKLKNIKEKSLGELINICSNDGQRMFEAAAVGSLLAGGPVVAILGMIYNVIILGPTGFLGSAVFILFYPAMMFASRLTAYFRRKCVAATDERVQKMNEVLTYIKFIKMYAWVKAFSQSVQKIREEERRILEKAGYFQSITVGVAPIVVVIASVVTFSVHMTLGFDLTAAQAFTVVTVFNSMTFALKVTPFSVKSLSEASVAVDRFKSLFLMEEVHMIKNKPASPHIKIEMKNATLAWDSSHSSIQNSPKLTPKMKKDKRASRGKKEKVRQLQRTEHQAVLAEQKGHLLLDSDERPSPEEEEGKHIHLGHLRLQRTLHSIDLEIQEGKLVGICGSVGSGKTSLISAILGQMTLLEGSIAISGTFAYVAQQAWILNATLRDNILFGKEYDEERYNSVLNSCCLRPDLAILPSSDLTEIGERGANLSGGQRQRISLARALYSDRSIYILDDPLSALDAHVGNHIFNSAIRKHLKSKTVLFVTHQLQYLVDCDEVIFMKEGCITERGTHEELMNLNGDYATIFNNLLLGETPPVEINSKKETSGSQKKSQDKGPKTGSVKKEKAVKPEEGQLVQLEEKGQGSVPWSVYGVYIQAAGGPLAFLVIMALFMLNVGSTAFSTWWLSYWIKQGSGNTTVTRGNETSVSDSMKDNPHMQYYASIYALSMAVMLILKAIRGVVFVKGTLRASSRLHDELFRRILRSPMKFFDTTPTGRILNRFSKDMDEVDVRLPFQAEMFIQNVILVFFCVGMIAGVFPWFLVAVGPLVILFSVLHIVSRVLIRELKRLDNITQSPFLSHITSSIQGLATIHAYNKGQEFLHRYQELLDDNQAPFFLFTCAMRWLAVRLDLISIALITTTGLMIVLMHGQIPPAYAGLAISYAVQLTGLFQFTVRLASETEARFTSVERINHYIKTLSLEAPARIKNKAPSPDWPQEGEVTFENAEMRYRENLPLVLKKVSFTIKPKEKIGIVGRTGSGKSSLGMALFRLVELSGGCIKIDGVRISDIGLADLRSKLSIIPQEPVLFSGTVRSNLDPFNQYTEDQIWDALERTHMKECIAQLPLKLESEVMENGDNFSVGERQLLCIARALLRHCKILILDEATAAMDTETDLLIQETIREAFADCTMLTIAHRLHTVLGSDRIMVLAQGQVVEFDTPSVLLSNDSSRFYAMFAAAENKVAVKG

MRP4 (ABCC4) = biological target: T1, MRP4 (ABCC4) (Homo sapiens, UniProt O15439); assay: TP_TRANSPORTER: inhibition of E217betaG uptake (E217betaG: 30 uM, Zaprinast: 100uM) in MRP4-expressing HEK293 cells; type: functional, cell-based; set-up: scale not given: the % may be the effect or the level left; settings: probe E217betaG (30 uM), read-out: Activity
T1 sequence (O15439 whole entry): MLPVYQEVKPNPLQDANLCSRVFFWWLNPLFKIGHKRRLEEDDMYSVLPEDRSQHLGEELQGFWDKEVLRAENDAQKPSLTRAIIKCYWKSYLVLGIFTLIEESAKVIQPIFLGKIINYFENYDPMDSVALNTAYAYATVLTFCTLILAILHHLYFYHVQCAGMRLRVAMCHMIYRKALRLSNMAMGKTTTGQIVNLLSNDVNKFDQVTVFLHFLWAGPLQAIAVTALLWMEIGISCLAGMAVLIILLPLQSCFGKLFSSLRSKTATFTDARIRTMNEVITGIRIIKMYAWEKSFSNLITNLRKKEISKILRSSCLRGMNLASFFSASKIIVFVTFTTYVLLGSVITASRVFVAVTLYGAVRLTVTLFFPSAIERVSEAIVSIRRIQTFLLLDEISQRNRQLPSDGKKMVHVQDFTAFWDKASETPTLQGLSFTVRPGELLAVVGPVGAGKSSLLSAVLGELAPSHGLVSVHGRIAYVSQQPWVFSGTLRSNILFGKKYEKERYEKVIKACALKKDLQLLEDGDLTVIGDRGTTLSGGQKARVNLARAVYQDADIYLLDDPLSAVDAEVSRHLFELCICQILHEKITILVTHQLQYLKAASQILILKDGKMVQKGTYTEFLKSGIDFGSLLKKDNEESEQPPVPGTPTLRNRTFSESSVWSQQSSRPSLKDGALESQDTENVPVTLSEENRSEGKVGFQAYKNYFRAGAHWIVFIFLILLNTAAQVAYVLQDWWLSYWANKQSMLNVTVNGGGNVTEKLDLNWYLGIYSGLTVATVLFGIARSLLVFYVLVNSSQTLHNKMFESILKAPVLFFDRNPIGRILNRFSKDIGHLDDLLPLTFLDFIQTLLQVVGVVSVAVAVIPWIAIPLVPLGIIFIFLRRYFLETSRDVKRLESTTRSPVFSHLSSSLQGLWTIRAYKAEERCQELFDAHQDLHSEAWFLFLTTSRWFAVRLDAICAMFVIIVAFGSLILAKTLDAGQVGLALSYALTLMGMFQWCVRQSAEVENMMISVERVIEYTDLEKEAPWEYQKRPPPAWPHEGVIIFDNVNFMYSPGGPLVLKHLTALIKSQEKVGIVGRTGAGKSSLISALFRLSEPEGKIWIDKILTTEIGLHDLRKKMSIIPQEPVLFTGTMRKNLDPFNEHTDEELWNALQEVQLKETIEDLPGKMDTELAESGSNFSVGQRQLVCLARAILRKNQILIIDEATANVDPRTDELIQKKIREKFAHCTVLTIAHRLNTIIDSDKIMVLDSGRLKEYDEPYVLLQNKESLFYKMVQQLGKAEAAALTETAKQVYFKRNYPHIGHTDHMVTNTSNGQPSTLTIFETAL

[1] = biological target: ATP-binding cassette sub-family C member 5 (Homo sapiens, UniProt O15440); type: functional, cell-based, HEK293
Sequence of ATP-binding cassette sub-family C member 5 (O15440 whole entry): as the sequence (O15440 whole entry) above

[2] = biological target: T2, ATP-binding cassette sub-family C member 4 (Homo sapiens, UniProt O15439); type: functional, cell-based, HEK293
T2 sequence (O15439 whole entry): T1 sequence (O15439 whole entry)

Row | Structure (SMILES) | activity at 100 µM (MRP5 (ABCC5)) [%] | activity at 100 µM (MRP4 (ABCC4)) [%] | IC50 [1] [µM] | IC50 [2] [µM]
1 | Nc1nc2c(ncn2[C@@H]2O[C@@H]3COP(=O)(O)O[C@H]3[C@H]2O)c(=O)[nH]1 | 37 | 48 | – | –
2 | CN(C)C(=O)CCSC(SCCC(=O)O)c1cccc(/C=C/c2ccc3ccc(Cl)cc3n2)c1 (stereo not given) [MK-571] | – | – | 40 | –
3 | COc1cc2c(cc1OC)-c1c/c(=N\c3c(C)cc(C)cc3C)n(C)c(=O)n1CC2 [TREQUINSIN] | – | – | 30 | 10
4 | O=[N+]([O-])c1ccc(CSc2ncnc3c2ncn3[C@@H]2O[C@H](CO)[C@@H](O)[C@H]2O)cc1 [NITROBENZYLMERCAPTOPURINE RIBONUCLEOSIDE] | – | – | – | 75
5 | COc1cc(C(=O)OCCCN2CCCN(CCCOC(=O)c3cc(OC)c(OC)c(OC)c3)CC2)cc(OC)c1OC [DILAZEP] | – | – | > 50 | 20
6 | CCCOc1ccccc1-c1nc2nn[nH]c2c(=O)[nH]1 [ZAPRINAST] | 12 | 7 | – | –
